Results on 3 compounds are retold here after paper PMC8635623, “A click chemistry approach to pleuromutilin derivatives, evaluation of anti-MRSA activity and elucidation of binding mode by surface plasmon resonance and molecular docking” (Journal of Enzyme Inhibition and Medicinal Chemistry, 2021).

In assay [1] the test system is MRSA ATCC 43300. Put plainly: MIC/MBC by broth micro dilution. The format is cell-based, methicillin-resistant S. aureus. The following applies: for MIC: 37 °C, 24 h; for MBC: lowest concentration reducing viable counts by 99.9%. The method, boiled down: (§1)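 CLSI broth microdilution in Mueller-Hinton broth, 0.016–32 µg/mL final, triplicates, 24 h at 37 °C. MBC: clear wells plated on MH agar, lowest concentration giving 99.9% reduction in viable counts.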

The subject of assay [2] is MRSA ATCC 43300. Put plainly: Constant concentration time-kill curves. As to conditions: for time-kill kinetics result: 8 × MIC, cultured for 24 h; for concentration giving a bactericidal effect: time-kill, MRSA. The format is cell-based, methicillin-resistant S. aureus. As to the method: The time-kill kinetic approach was used to investigate the anti-MRSA activity of compounds 50, 62 and 64. The experimental results were presented in graphic form in Figure 2. Compared with growth control, compounds 50 and 62 inhibited the reproduction of bacteria to a certain extent.
The time-kill curve determination is an in vitro bactericidal kinetics model, which is used to study the sustained killing effect of bacteria within 24 h at a certain drug concentration. The bactericidal activity of compounds 50, 62 and 64 was determined by the time-kill curve as reported in our previous work[18]^,[22]. MRSA grown in MH broth were diluted to approximately 1 × 10^6 CFU/mL. […] 100 µL of samples were collected from the subculture inoculums before culture (0 h) and 3 h, 6 h, 9 h and 24 h after culture, and serially diluted 10-flod with sterile saline. The dilution of each gradient (25 µL) was uniformly suspended on the MH agar plates. The total bacterial CFU/mL on the plates were counted to calculate the bacterial colonies after up to 20 h of incubation at 37 °C. The results are represented by Mean ± SD, with the log10 CFU/mL of bacteria counts as the ordinate and time as the abscissa, the time-kill curves of different concentrations of compounds against MRSA were established respectively.

Another assay has as its target 50S ribosome. Description: SPR binding studies. On the set-up: species or system S. aureus. As to conditions: for Ka (association rate constant) / Kd (dissociation rate constant): PBST pH 7.4, compound immobilised, 50S ribosome 200-3200 nM. As to the method: In order to gain some insight into the binding mode of the potent inhibitors, SPR experiments were performed. […] The response unit (RU) of surface resonance was compared to determine the different binding affinities between each compound and the 50S ribosome. The association rate constants (Ka) and dissociation rate constant (Kd) represent the rate of association and dissociation in the binding reaction, respectively. The equilibrium dissociation constant (KD) indicated the degree of dissociation of compounds and the 50S ribosome in the equilibrium state. Their binding curves during the experiment were shown in Figure 3, as well as the concentration gradient curves were shown in Figure SI 27–34.
SPR biosensing experiments were performed at 4 °C using the bScreen LB 991 Label-free Microarray System (Berthold Technologies, Germany) and the photo-cross-linker sensor chip. The BIODOT™ AD-1520 Array Printer (BIODOT Inc., USA) was used for printing samples and control on the chip surface. A UV Spectroirradiator 1020 (Amersham Life Science, USA) was used for the photo-cross-linking reaction quickly after the array print.
As described in the reference[32–34] with minor modifications, the ribosome of S. aureus were extracted and purified to obtain 50S ribosome. MRSA (ATCC 43300) was incubated overnight at 37 °C. The bacteria solution was inoculated into a new culture solution, and cells were collected at an OD600 = 1.5. The bacterial culture was centrifuged 3 times at 3,500 rpm using a TX-400 rotor at 4 °C for 30 min, and then the supernatant was discarded. Cells were washed twice with 10 mM Tris-HCl (pH = 7.5), and suspend the precipitate with buffer A (20 mM HEPES-HCl pH = 7.5, 100 mM NH4Cl, 21 mM Mg(OAc)2, 1 mM EDTA, 1 mM DTT). Cells were lysed by repeated (>3×) snap-freezing and thawing, then ultrasonic disintegration was performed. To remove cell debris, the crushed product was centrifuged at 20,000 rpm for 90 min at 4 °C.The lysate layered on 15 ml of a sucrose cushion (10 mM HEPES-HCl pH = 7.5, 500 mM KCl, 25 mM Mg(OAc)2, 1.1 M sucrose, 0.5 mM EDTA, 1 mM DTT) and centrifuged in the ultracentrifuge(Optima^TM TL 100) at 45,000 rpm using a type70Ti rotor at 4 °C for 15 h to obtain ribosomal particles. Pellet was resuspended in 3 ml of buffer E (10 mM HEPES-HCl pH = 7.5, 100 mM KCl, 1 mM Mg(OAc)2, 0.5 mM EDTA, 1 mM DTT), then layered on 9 ml of 7–30% sucrose gradient and ultracentrifuged at 17,100 rpm using a typeSW40Ti rotor at 4 °C for 15 h. The gradient was analysed on the AKTA explorer system. The fractions corresponding to 50S ribosome were collected and PEG 20000 was added to a final concentration of 4.5% w/v. Ribosomes were pelleted by centrifugation at 20,000 rpm for 12 min, the pellet was gently dissolved in 200 µL of storage buffer (10 mM HEPES-HCl pH = 7.5, 15 mM KCl, 60 mM NH4Cl, 10 mM Mg(OAc)2, 1 mM DTT) and then flash-frozen for storage at −80 °C.
Dilute these compounds to a concentration of 10 mM with DMSO as the stationary phase printing working solution. After that, the printing working solution was printed on the sensor chip by the array printer, and each sample was printed four times repeatedly. Four groups of positive control dots (12 rapamycin dots, 3 in each corner) were printed on the four corners of the sensor chip respectively. The sample dots were dried in vacuum, and the sensor chip was quickly transferred to the UV spectroirradiator for a photo-cross-linking reaction. Subsequently, the sensor chip was washed with DMF, methanol, and water for 15 min in turn, followed by blowing dry under nitrogen, and then assembled with Flowcell Cover.
The binding studies were performed with PBST running buffer (pH = 7.4, 0.1% Tween 20) at a constant flow rate of 0.5 µL/s in instrument. 50S Ribosome was diluted separately with PBST running buffer to 200 nM, 400 nM, 800 nM, 1600 nM and 3200 nM and injected consecutively for 600 s at associating stage, followed by running buffer for 360 s at each dissociating stage. […]
(In general: Surface plasmon resonance follows binding to a sensor surface in real time, without labels.)

In another assay the test system is S. aureus ATCC 29213. Description: MIC/MBC by broth micro dilution. The format is cell-based. As to conditions: Staphylococcus aureus; for MIC: ATCC29213, 37 °C, 24 h; for MBC: ATCC29213, lowest concentration reducing viable counts by 99.9%. In short, it runs like this: as §1
The test system of the next assay is S. aureus AD3. Put plainly: MIC/MBC by broth micro dilution. The format is cell-based. As to conditions: Staphylococcus aureus, S. aureus AD3 (clinical strain); for MIC: 37 °C, 24 h; for MBC: lowest concentration reducing viable counts by 99.9%. The method, boiled down: as §1
The next assay concerns S. aureus 144. Description: MIC/MBC by broth micro dilution. The format is cell-based. As to conditions: Staphylococcus aureus, S. aureus 144 (clinical strain); for MIC: 37 °C, 24 h; for MBC: lowest concentration reducing viable counts by 99.9%. The method, boiled down:
as §1

The mark [3] stands for this setting: Staphylococcus aureus, read-out: MIC.
Where [4] appears, read: 4 °C, PBST pH 7.4, KD = Kd/Ka, read-out: KD (equilibrium dissociation constant).

SMILES strings stand for the structures. pKd: −log10 of the molar value. Values after ≈ are worked out from the molar mass of the structure shown. Read-outs that look alike come from different tables or passages of the source.

What is called MIC is the lowest concentration that inhibits growth of the organism. What is called MBC is the lowest tested concentration that kills the bacteria rather than only halting them. The term pKd denotes the Kd on a negative log10 scale, so that one unit is a factor of ten. In the case of `C=C[C@]1(C)C[C@@H](OC(=O)Cn2cc(CN3CCN(c4ccccc4C)CC3)nn2)[C@]2(C)[C@H](C)CC[C@]3(CCC(=O)[C@H]32)[C@@H](C)[C@@H]1O` [Compound 50, 22-(2-(4-(4-(o-Tolyl)-piperazin-1-yl)-methyl)-1H-1,2,3-triazol-1-yl)-22-deoxy pleuromutilin], the MIC with MRSA ATCC 43300 [1] (setting [3]) is 1 µg/mL (≈ 1.62 µM); with S. aureus ATCC 29213 it was 1 µg/mL (≈ 1.62 µM); against S. aureus AD3, 2 µg/mL (≈ 3.24 µM); with S. aureus 144 it was 4 µg/mL (≈ 6.47 µM). In addition, the MBC in the assay with MRSA ATCC 43300 [1] (Staphylococcus aureus) was determined as 2 µg/mL (≈ 3.24 µM); in the assay with S. aureus ATCC 29213, 2 µg/mL (≈ 3.24 µM); against S. aureus AD3 it was 4 µg/mL (≈ 6.47 µM); against S. aureus 144, 4 µg/mL (≈ 6.47 µM). Further, the time-kill kinetics result in the assay on MRSA ATCC 43300 [2] is “relatively anti-MRSA bacteriostatic kinetics”. Also, the “concentration giving a bactericidal effect” value with MRSA ATCC 43300 [2] is “higher than 4 × MIC”. For the same compound, at 50S ribosome (setting [4]), the pKd is 7.63. For the same compound, in the assay on 50S ribosome (4 °C), the “Ka (association rate constant)” value was determined as 170 M⁻¹ s⁻¹. Also, the “Kd (dissociation rate constant)” value with 50S ribosome (4 °C) was 3.93e-06 s⁻¹.

As to `C=C[C@]1(C)C[C@@H](OC(=O)Cn2cc(CN3CCN(c4ccc([N+](=O)[O-])cc4)CC3)nn2)[C@]2(C)[C@H](C)CC[C@]3(CCC(=O)[C@H]32)[C@@H](C)[C@@H]1O` [Compound 64, 22-(2-(4-(4-(4-Nitrophenyl)-piperazin-1-yl)-methyl)-1H-1,2,3-triazol-1-yl)-22-deoxy pleuromutilin], the MIC was found to be 0.5 µg/mL (≈ 0.771 µM) against MRSA ATCC 43300 [1]; 0.5 µg/mL (≈ 0.771 µM) in the assay on MRSA ATCC 43300 [1] (setting [3]); 1 µg/mL (≈ 1.54 µM) against S. aureus ATCC 29213; 1 µg/mL (≈ 1.54 µM) in the assay with S. aureus AD3; 2 µg/mL (≈ 3.08 µM) in the assay on S. aureus 144. The MBC in the assay with MRSA ATCC 43300 [1] (Staphylococcus aureus) is 1 µg/mL (≈ 1.54 µM); in the assay on S. aureus ATCC 29213, 2 µg/mL (≈ 3.08 µM); against S. aureus AD3, 4 µg/mL (≈ 6.17 µM); in the assay with S. aureus 144 it was 4 µg/mL (≈ 6.17 µM). Further, the “MRSA killing, log10 CFU/mL reduction” value in the assay with MRSA ATCC 43300 [2] (16 × MIC, after 3 h incubation) turned out to be 2.21 log10 CFU/mL. The “bacterial growth inhibition, log10 CFU/mL reduction” value with MRSA ATCC 43300 [2] (16 × MIC, at 24 h) came to 4.49 log10 CFU/mL. For the same compound, the “concentration giving a bactericidal effect” value in the assay on MRSA ATCC 43300 [2] is “higher than 4 × MIC”. The pKd on 50S ribosome (setting [4]) is 6.20. Besides, the “Ka (association rate constant)” value with 50S ribosome (4 °C) came to 1200 M⁻¹ s⁻¹. Besides, the “Kd (dissociation rate constant)” value in the assay with 50S ribosome (4 °C) turned out to be 0.000764 s⁻¹.

On to `C=C[C@]1(C)C[C@@H](OC(=O)Cn2cc(CN3CCN(c4ccccc4[N+](=O)[O-])CC3)nn2)[C@]2(C)[C@H](C)CC[C@]3(CCC(=O)[C@H]32)[C@@H](C)[C@@H]1O` [Compound 62, 22-(2-(4-(4-(2-Nitrophenyl)-piperazin-1-yl)-methyl)-1H-1,2,3-triazol-1-yl)-22-deoxy pleuromutilin], for which the MIC in the assay with MRSA ATCC 43300 [1] (setting [3]) came to 1 µg/mL (≈ 1.54 µM); with S. aureus ATCC 29213, 2 µg/mL (≈ 3.08 µM); against S. aureus AD3, 1 µg/mL (≈ 1.54 µM); in the assay on S. aureus 144 it was 2 µg/mL (≈ 3.08 µM). The MBC in the assay on MRSA ATCC 43300 [1] (Staphylococcus aureus) is 2 µg/mL (≈ 3.08 µM); in the assay on S. aureus ATCC 29213, 2 µg/mL (≈ 3.08 µM); against S. aureus AD3, 4 µg/mL (≈ 6.17 µM); in the assay with S. aureus 144 it was 4 µg/mL (≈ 6.17 µM). In addition, the time-kill kinetics result with MRSA ATCC 43300 [2] is recorded as “relatively anti-MRSA bacteriostatic kinetics”. Besides, the “concentration giving a bactericidal effect” value with MRSA ATCC 43300 [2] is given as “higher than 4 × MIC”. Also, the values for the pKd at 50S ribosome (setting [4]) and on 50S ribosome (read-out: interaction intensity level for 50S ribosome (KD class)) were 4.75 and 3.00 to 5.00, respectively. The “Ka (association rate constant)” value in the assay on 50S ribosome (4 °C) worked out at 734 M⁻¹ s⁻¹. Further, in the assay on 50S ribosome (4 °C), the “Kd (dissociation rate constant)” value was determined as 0.013 s⁻¹.
